According to ChEMBL document CHEMBL6103648, “AI-Driven Discovery of Highly Specific and Efficacious hCES2A Inhibitors for Ameliorating Irinotecan-Triggered Gut Toxicity” (J Med Chem, 2025):
Values after ≈ are worked out from the molar mass of the structure shown. Active and inactive are the calls of the source. The rule behind the calls is not given here.

What was measured:
[1] = Inhibition of human CES2A using fluorescein diacetate as substrate preincubated for 3 mins followed by substrate addition measured after 30 mins by fluorescence based assay
[2] = (§1) Covalent inhibition of human CES2A
Homo sapiens = species on record: Homo sapiens; assay: as §1
Cholinesterase [3] = target: T1, Cholinesterase (Homo sapiens, UniProt P06276); assay: Inhibition of human BuChE using BTCI as substrate incubated for 33 mins by Ellman's method
Cholinesterase [4] = target: T1, Cholinesterase; assay: Inhibition of human BuChE using BTCI as substrate incubated for 3 mins by Ellman's method
Prothrombin = Prothrombin (Homo sapiens, UniProt P00734); assay: Inhibition of human Thrombin using Z-GGRAMC as substrate preincubated for 3 mins followed by substrate addition by fluorescence based assay
[5] = Permeability across basal to apical side in human Caco-2 cells assessed as cumulative penetration amount at 100 uM incubated for 120 mins by UPLC-MS/MS analysis; type: ADME, cell-based; conditions: caco-2, 2 h
[6] = Apparent permeability across apical to basal side in human Caco-2 cells at 25 uM incubated for 120 mins by UPLC-MS/MS analysis; type: ADME, cell-based
[7] = Apparent permeability across apical to basal side in human Caco-2 cells at 100 uM incubated for 120 mins by UPLC-MS/MS analysis; type: ADME, cell-based
[8] = Apparent permeability across basal to apical side in human Caco-2 cells at 25 uM incubated for 120 mins by UPLC-MS/MS analysis; type: ADME, cell-based
[9] = Efflux ratio of apparent permeability across basal to apical side over apical to basal side in human Caco-2 cells at 25 uM incubated for 120 mins by UPLC-MS/MS analysis; type: ADME, cell-based
Cytochrome P450 2C8 = target: T2, Cytochrome P450 2C8 (Homo sapiens, UniProt P10632); assay: Inhibition of CYP2C8 in human liver microsomes using paclitaxel as substrate upto 10 uM; type: ADME, Microsome
T2 sequence (P10632 whole entry): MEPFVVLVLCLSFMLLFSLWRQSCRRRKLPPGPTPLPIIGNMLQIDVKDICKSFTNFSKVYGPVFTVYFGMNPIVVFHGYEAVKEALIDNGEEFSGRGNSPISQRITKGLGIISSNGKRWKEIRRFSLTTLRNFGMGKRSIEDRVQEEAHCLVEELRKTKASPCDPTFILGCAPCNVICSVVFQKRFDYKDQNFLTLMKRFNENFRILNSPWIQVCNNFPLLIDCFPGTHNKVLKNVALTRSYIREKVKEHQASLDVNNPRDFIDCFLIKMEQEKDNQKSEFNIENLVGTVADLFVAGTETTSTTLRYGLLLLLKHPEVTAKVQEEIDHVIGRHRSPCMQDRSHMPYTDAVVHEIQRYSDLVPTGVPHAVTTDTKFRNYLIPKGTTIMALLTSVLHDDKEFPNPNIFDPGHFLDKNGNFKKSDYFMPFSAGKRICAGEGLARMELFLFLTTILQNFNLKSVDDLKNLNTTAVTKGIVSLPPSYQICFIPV

[10] = (§2) Inhibition of CES2A in human HepG2 cells using NCEN as substrate assessed as decrease in green fluorescence preincubated fir 1 hr followed by substrate addition measured after 45 mins by Hoechst33342 staining based analysis; type: cell-based
HepG2 = assay: as §2; type: cell-based; conditions: time 105.0 min
[11] = Aqueous solubility of compound by UPLC-MS/MS analysis; type: physicochemical; conditions: buffer
Cytochrome P450 2C9 = Cytochrome P450 2C9 (Homo sapiens, UniProt P11712); assay: Inhibition of CYP2C9 in human liver microsomes using diclofenac as substrate upto 10 uM; type: ADME, Microsome
Cytochrome P450 2D6 = Cytochrome P450 2D6 (Homo sapiens, UniProt P10635); assay: Inhibition of CYP2D6 in human liver microsomes using dextromethorphan as substrate upto 10 uM; type: ADME, Microsome
Cytochrome P450 3A4 = Cytochrome P450 3A4 (Homo sapiens, UniProt P08684); assay: Inhibition of CYP3A4 in human liver microsomes using testosterone as substrate upto 10 uM; type: ADME, Microsome
[12] = Sub-acute toxicity in C57BL/6J mouse assessed as change in mental state at 100 mg/kg/day, po treated for 14 days consecutively; type: organism-based; conditions: in vivo, 336 h, time 14 day
[13] = Sub-acute toxicity in C57BL/6J mouse assessed as change in movement behaviors at 100 mg/kg/day, po treated for 14 days consecutively; type: organism-based; conditions: in vivo, 336 h, time 14 day
[14] = Sub-acute toxicity in C57BL/6J mouse assessed as abnormality in brain at 100 mg/kg/day, po treated for 14 days consecutively by H and E staining based analysis; type: organism-based; conditions: in vivo, 336 h, time 14 day
[15] = Sub-acute toxicity in C57BL/6J mouse assessed as abnormality in gastrointestinal tract at 100 mg/kg/day, po treated for 14 days consecutively by H and E staining based analysis; type: organism-based; conditions: in vivo, 336 h, time 14 day
[16] = Sub-acute toxicity in C57BL/6J mouse assessed as change in ALB level at 100 mg/kg/day, po treated for 14 days consecutively; type: organism-based; conditions: in vivo, 336 h, time 14 day
[17] = Sub-acute toxicity in C57BL/6J mouse assessed as change in UREA level at 100 mg/kg/day, po treated for 14 days consecutively; type: organism-based; conditions: in vivo, 336 h, time 14 day
[18] = Drug distribution in stomach of C57BL/6J mouse at 100 mg/kg, po administered as single dose measured for 0.5 to 3 hrs by UHPLC-Q-Orbitrap HRMS analysis; type: ADME, organism-based; conditions: in vivo, time 0.5-3 hrs
[19] = Drug distribution in duodenum of C57BL/6J mouse at 100 mg/kg, po administered as single dose measured for 0.5 to 3 hrs by UHPLC-Q-Orbitrap HRMS analysis; type: ADME, organism-based; conditions: in vivo, time 0.5-3 hrs
[20] = Drug distribution in jejunum of C57BL/6J mouse at 100 mg/kg, po administered as single dose measured for 0.5 to 3 hrs by UHPLC-Q-Orbitrap HRMS analysis; type: ADME, organism-based; conditions: in vivo, time 0.5-3 hrs
Mus musculus [21] = assay: Inhibition of irinotecan-triggered gut toxicity in C57BL/6J mouse bearing tumor cells assessed as increase in body weight at 25 to 50 mg/kg/day, po treated for 14 days; type: functional, organism-based; conditions: dose 25-50 mg/kg/day, time 14.0 day
Mus musculus [22] = assay: Inhibition of irinotecan-triggered gut toxicity in C57BL/6J mouse bearing tumor cells assessed as decrease in IL-1beta level in colon tissue administered orally treated for 14 days; type: functional, organism-based; conditions: dose 25-50 mg/kg/day, route po, time 14.0 day
Mus musculus [23] = assay: Inhibition of irinotecan-triggered gut toxicity in C57BL/6J mouse bearing tumor cells assessed as increase in claudin-1 level in colon tissue at 25 to 50 mg/kg/day, po treated for 14 days by immunofluorescence based analysis; type: functional, organism-based; conditions: dose 25-50 mg/kg/day, time 14.0 day
Mus musculus [24] = assay: Inhibition of irinotecan-triggered gut toxicity in C57BL/6J mouse bearing tumor cells assessed as decrease in serum ALT level at 25 to 50 mg/kg/day, po treated for 14 days; type: functional, organism-based; conditions: dose 25-50 mg/kg/day, time 14.0 day
Mus musculus [25] = assay: Inhibition of irinotecan-triggered gut toxicity in C57BL/6J mouse bearing tumor cells assessed as decrease in serum CREA level at 25 to 50 mg/kg/day, po treated for 14 days; type: functional, organism-based; conditions: dose 25-50 mg/kg/day, time 14.0 day
Mus musculus [26] = assay: Inhibition of irinotecan-induced anti-tumor activity in C57BL/6J mouse bearing tumor cells assessed as increase in tumor volume at 25 to 50 mg/kg/day, po treated for 14 days; type: functional, organism-based; conditions: dose 25-50 mg/kg/day, time 14.0 day

T1 sequence (P06276 whole entry): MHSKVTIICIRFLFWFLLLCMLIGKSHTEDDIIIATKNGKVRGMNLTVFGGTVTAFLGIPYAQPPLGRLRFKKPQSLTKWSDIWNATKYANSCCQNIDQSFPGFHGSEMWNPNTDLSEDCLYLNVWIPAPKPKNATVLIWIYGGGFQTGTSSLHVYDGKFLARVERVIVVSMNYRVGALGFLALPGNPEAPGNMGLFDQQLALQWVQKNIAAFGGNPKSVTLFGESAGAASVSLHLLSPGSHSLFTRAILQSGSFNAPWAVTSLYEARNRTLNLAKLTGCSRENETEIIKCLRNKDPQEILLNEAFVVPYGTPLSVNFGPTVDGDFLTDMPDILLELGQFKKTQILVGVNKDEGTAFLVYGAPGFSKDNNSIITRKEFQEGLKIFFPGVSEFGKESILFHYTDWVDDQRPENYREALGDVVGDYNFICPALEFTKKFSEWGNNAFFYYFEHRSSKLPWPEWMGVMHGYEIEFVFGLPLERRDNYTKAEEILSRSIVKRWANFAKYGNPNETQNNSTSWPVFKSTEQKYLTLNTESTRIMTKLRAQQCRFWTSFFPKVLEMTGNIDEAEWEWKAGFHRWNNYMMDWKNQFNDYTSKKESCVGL
Sequence of Cytochrome P450 2C9 (P11712 whole entry): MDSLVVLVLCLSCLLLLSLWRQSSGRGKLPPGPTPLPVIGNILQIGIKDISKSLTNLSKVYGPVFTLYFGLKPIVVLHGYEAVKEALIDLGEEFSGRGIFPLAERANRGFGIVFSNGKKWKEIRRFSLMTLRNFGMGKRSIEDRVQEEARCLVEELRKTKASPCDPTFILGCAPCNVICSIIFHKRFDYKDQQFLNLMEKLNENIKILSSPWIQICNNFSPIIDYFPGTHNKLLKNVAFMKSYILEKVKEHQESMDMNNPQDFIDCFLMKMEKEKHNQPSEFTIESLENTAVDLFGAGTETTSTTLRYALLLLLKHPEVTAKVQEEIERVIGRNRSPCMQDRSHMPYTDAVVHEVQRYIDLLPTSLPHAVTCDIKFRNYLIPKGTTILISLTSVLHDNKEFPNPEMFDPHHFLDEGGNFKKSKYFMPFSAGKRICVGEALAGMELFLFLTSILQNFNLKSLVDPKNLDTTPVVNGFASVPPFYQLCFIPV
Sequence of Cytochrome P450 2D6 (P10635 whole entry): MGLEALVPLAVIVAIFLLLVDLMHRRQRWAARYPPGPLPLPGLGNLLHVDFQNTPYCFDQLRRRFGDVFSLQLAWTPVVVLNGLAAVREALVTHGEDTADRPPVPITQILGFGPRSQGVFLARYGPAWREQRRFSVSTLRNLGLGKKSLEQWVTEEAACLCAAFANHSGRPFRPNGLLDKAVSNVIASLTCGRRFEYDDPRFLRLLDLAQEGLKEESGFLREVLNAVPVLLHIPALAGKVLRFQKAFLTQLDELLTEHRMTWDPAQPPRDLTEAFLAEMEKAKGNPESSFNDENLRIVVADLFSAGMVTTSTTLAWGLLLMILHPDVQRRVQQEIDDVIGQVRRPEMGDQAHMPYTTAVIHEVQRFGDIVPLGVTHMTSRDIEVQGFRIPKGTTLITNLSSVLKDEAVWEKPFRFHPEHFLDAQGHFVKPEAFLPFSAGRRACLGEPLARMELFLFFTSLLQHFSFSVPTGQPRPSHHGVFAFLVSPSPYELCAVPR
Sequence of Cytochrome P450 3A4 (P08684 whole entry): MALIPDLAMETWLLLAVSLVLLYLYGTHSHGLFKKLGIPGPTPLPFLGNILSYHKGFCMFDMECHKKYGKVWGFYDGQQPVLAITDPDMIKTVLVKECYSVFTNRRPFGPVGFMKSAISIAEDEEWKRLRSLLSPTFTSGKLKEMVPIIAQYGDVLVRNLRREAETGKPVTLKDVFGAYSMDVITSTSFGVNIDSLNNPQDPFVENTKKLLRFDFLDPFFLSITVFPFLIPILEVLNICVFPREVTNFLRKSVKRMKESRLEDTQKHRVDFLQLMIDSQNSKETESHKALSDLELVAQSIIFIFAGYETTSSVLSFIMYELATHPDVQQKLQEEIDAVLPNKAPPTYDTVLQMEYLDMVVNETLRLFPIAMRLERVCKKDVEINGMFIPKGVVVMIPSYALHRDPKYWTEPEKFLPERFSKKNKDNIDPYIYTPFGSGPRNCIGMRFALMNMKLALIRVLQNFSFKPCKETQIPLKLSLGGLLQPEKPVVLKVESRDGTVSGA

CCN(C)C(=O)Oc1ccc(C(=O)N2CCC(Cc3ccccc3)CC2)cc1OC
IC50 [1]: 0.69 nM
Ki [2]: 0.065 nM
Kinact (Homo sapiens): 0.033 min⁻¹
IC50 (Cholinesterase [3]): 834 nM
IC50 (Cholinesterase [4]): 3060 nM
IC50 (Prothrombin): > 10000 nM
Activity [5]: 6.29 µM
Papp A→B at 2 h, 25 µM [6]: 15.7 ×10⁻⁶ cm/s
Papp A→B at 2 h, 100 µM [7]: 11.7 ×10⁻⁶ cm/s
Papp B→A at 2 h, 25 µM [8]: 10.1 ×10⁻⁶ cm/s
efflux ratio at 2 h, 25 µM [9]: 0.64
inhibition (INH) (Cytochrome P450 2C8): Not_active
IC50 [10]: 0.36 nM
inhibition (HepG2): Dose-dependent-effect
solubility [11]: 32 µg/mL (≈ 78 µM)
inhibition (INH) (Cytochrome P450 2C9): Not_active
inhibition (INH) (Cytochrome P450 2D6): Not_active
inhibition (INH) (Cytochrome P450 3A4): Not_active
Activity [12]: Non-toxic
Activity [13]: Non-toxic
Activity [14]: Non-toxic
Activity [15]: Non-toxic
Activity [16]: Non-toxic
Activity [17]: Non-toxic
Drug uptake [18]: Active
Drug uptake [19]: Active
Drug uptake [20]: Active
inhibition (Mus musculus [21]): Active
inhibition (Mus musculus [22]): Active
inhibition (Mus musculus [23]): Active
inhibition (Mus musculus [24]): Active
inhibition (Mus musculus [25]): Active
inhibition (Mus musculus [26]): inactive
